The values that follow are results of earlier work, collected in EP4759311A1, “TRPM8 INHIBITORS FOR USE IN THE PREVENTION OR TREATMENT OF JOINT DAMAGE, JOINT DEGENERATION AND/OR JOINT INFLAMMATION CAUSED BY OSTEOARTHRITIS” (Dompé farmaceutici SpA, priority 2024, dated 2026).

Broadly, the IC50 is the concentration needed to halve the response being measured.

Structures are written as SMILES.

The target of the series is TRPM8 (Homo sapiens, UniProt Q7Z2W7). The following applies: TRPM8 inhibitor; no method given.
Sequence of TRPM8 (Q7Z2W7 whole entry, species assumed): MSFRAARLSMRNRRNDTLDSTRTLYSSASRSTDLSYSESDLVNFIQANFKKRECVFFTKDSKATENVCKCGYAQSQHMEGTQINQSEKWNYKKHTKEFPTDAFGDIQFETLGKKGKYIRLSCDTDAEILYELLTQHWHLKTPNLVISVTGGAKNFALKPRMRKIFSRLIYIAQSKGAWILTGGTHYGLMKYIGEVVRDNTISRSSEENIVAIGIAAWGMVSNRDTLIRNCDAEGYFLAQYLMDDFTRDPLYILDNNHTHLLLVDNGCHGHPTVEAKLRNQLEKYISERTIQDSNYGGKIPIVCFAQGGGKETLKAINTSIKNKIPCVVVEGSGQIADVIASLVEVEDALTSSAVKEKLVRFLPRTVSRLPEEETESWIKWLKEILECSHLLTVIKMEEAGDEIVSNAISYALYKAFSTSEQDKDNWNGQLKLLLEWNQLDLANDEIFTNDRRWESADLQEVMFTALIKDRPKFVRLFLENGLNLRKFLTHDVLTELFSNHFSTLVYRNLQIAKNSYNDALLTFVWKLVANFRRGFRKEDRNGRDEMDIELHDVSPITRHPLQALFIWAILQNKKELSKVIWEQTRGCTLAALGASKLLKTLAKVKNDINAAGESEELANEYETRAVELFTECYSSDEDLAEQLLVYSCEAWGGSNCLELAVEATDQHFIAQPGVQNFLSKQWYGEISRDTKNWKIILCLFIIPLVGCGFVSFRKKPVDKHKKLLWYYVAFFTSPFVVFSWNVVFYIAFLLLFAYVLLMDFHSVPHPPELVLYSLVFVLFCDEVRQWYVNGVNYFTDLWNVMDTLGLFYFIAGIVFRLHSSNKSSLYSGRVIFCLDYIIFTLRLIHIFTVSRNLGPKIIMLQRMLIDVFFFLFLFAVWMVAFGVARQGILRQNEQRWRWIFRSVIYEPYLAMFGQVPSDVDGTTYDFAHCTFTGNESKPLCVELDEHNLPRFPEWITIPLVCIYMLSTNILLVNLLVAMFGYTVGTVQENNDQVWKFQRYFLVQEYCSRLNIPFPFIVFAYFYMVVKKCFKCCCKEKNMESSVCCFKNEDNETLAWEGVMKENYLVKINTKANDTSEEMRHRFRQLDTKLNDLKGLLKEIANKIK

Consider `O=C(O)c1ccc(S(=O)(=O)N(Cc2ccc(OC(F)(F)F)cc2)c2ncc(C(F)(F)F)cc2Cl)cc1` [RQ-00203078, 4-[[[3-Chloro-5-(trifluoromethyl)-2-pyridinyl][[4-(trifluoromethoxy)phenyl]methyl]amino]sulfonyl]benzoic acid], for which the IC50 was 5.3 nM.

As to `COC(=O)[C@H](Cc1c[nH]c2ccccc12)N(Cc1ccccc1)Cc1ccccc1` [TRPM8 antagonist 2, N,N-Bis(phenylmethyl)-L-tryptophan methyl ester], the IC50 was 0.2 nM.
